Here are results for nine molecules from BindingDB's records for patent US20240376097 (Beigene, 2024).

Values joined by “and” are separate entries in the source; they are usually repeats but may differ in a detail not shown here. Equal values may be shown once.

Apoptosis regulator Bcl-2, sequence (P10415 whole entry): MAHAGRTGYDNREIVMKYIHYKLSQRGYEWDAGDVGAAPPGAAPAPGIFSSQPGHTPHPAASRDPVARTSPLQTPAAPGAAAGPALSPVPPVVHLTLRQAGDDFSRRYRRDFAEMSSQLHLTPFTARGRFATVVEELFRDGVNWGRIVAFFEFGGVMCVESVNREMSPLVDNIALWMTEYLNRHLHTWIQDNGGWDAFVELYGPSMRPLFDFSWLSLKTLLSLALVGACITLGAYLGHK

The test has as its target Apoptosis regulator Bcl-2 (Homo sapiens, UniProt P10415). Put plainly: Bcl-2 TR-FRET Assay. The protocol: Compounds disclosed herein were tested for blocking of Bcl-2 protein with its ligand in an assay based on Time-Resolved Fluorescence Resonance Energy Transfer (TR-FRET) methodology. Recombinant human 0.05 nM Bcl-2 protein was pre-incubated with a serial dilution of compounds disclosed herein (top final concentration is 1 uM or 0.1 uM or 0.02 uM or 0.01 uM, 10 points) at room temperature for 0.5 hour in an assay buffer containing 20 mM potassium phosphate buffer, pH 7.5, 50 mM NaCl. 1 mM EDTA, 0.05% Tween-20, 0.01% BSA. Then the FITC labeled Bak peptide Ac-GQVGRQLAIIGDK(FITC)INR-amide (0.5 nM) and MAb Anti 6His Tb cryptate Gold were added to plate and further incubated at room temperature for 1 hour. The TR-FRET signals (337 nm-520 nm-490 nm) were read on BMG PHERAstar FSX instrument. The inhibition percentage of Bcl-2 interaction with its ligand in presence of increasing concentrations of compounds was calculated based on the TR-FRET signals.
On the technique in general: Time-resolved FRET reads energy transfer from a long-lived donor to a nearby acceptor.
One may read the IC50 as the midpoint of a concentration-inhibition curve. The molecule `COc1cc(CN2CCN(C3CC4(CCN(c5ccc(C(=O)NS(=O)(=O)c6ccc(NC[C@H]7CC[C@](C)(O)CC7)c([N+](=O)[O-])c6)c(Oc6cnc7[nH]cc(F)c7c6)c5)CC4)C3)[C@H](c3ccccc3C(C)C)C2)ccc1Cl` [US20240376097, Example 278] showed an IC50 of 0.6 nM.

For the molecule `CC(C)c1ccccc1[C@@H]1CN(Cc2ccc(OC3CC3)c(OC3CC3)c2)CCN1C1CC2(C1)CN(c1ccc(C(=O)NS(=O)(=O)c3ccc(NC[C@H]4CC[C@](C)(O)CC4)c([N+](=O)[O-])c3)c(Oc3cnc4[nH]cc(F)c4c3)c1)C2` [US20240376097, Example 363], the IC50 is 0.34 nM and 0.4 nM.

`COCCN1CCN(C2CC3(CCN(c4ccc(C(=O)NS(=O)(=O)c5ccc(NC[C@H]6CC[C@](C)(O)CC6)c([N+](=O)[O-])c5)c(Oc5cnc6[nH]ccc6c5)c4)CC3)C2)C(c2ccccc2C(C)C)C1` (some centres undefined) [US20240376097, Example 13] gave an IC50 of 0.011 nM. That is a picomolar value.

`COc1cc(CN2CCN(C3CC4(CCN(c5ccc(C(=O)NS(=O)(=O)c6ccc(NC[C@H]7CC[C@](C)(O)CC7)c([N+](=O)[O-])c6)c(Oc6cnc7[nH]ccc7c6)c5)CC4)C3)[C@H](c3ccccc3C(C)C)C2)ccc1Cl` [US20240376097, Example 276] registered a concentration for half-maximal inhibition (IC50) of 0.48 nM.

The molecule `CC(C)c1ccccc1C1CN(CC(C)(C)C)CCN1C1CC2(CCN(c3ccc(C(=O)NS(=O)(=O)c4ccc(NC[C@H]5CC[C@](C)(O)CC5)c([N+](=O)[O-])c4)c(Oc4cnc5[nH]ccc5c4)c3)CC2)C1` (some centres undefined) [US20240376097, Example 12] gave an IC50 of 0.73 nM.

In turn, `COc1cc(CN2CCN(C3CC4(CCN(c5ccc(C(=O)NS(=O)(=O)c6ccc(NC[C@H]7CC[C@](C)(O)CC7)c([N+](=O)[O-])c6)c(Oc6cnc7[nH]ccc7c6)c5)CC4)C3)C(c3ccccc3C(C)C)C2)cc(C(F)(F)F)c1OC` (some centres undefined) [US20240376097, Example 179] yielded an IC50 of 1.5 nM.

Take `COc1cc(CN2CCN(C3CC4(CCN(c5ccc(C(=O)NS(=O)(=O)c6ccc(NC[C@H]7CC[C@](C)(O)CC7)c([N+](=O)[O-])c6)c(Oc6cnc7[nH]ccc7c6)c5)CC4)C3)C(c3ccccc3C(C)C)C2)cc(OC)c1` (some centres undefined) [US20240376097, Example 49]: the IC50 turned out to be 0.2 nM.

Consider `COc1ccc(CN2CCN(C3CC4(CCN(c5ccc(C(=O)NS(=O)(=O)c6ccc(NC[C@H]7CC[C@](C)(O)CC7)c([N+](=O)[O-])c6)c(Oc6cnc7[nH]ccc7c6)c5)CC4)C3)C(c3ccccc3C(C)C)C2)cc1` (some centres undefined) [US20240376097, Example 19], for which the IC50 came out at 0.086 nM.

Turning to `COc1cc(CN2CCN(C3CC4(CCN(c5ccc(C(=O)NS(=O)(=O)c6ccc(NC[C@H]7CC[C@](C)(O)CC7)c([N+](=O)[O-])c6)c(Oc6cnc7[nH]cc(F)c7c6)c5)CC4)C3)[C@H](c3ccccc3C(C)C)C2)cc(C)c1OC` [US20240376097, Example 210], the IC50 is 0.33 nM.
